Measured values: paper PMC3668304, “Antidiabetic and antioxidant properties of Ficus deltoidea fruit extracts and fractions” (BMC Complementary and Alternative Medicine, 2013)
In brackets after ≈: the same amount, converted by molar mass.

Target: T1, rat intestinal α-glucosidase (substrate pNPG)
T1 construct: gene Si; crude native enzyme from Sigma rat intestinal acetone powder
Experiment: colorimetric p-nitrophenol release, […] nm
Assay type: biochemical
Details: substrate 4 mM pNPG (added stock); sodium phosphate buffer; 37°C, 30 min; crude enzyme

Work on `C[C@H]1O[C@H](O[C@H]2[C@H](O)[C@@H](O)[C@@H](O[C@H]3[C@H](O)[C@@H](O)C(O)O[C@@H]3CO)O[C@@H]2CO)[C@H](O)[C@@H](O)[C@@H]1N[C@H]1C=C(CO)[C@@H](O)[C@H](O)[C@H]1O` (stereo partly shown) [acarbose] yielded an IC50 of 57.79 ± 0.66 µg/mL (≈ 89.5 µM).
